Assay results as given in ChEMBL document CHEMBL1132742, “The synthesis and SAR of rhodanines as novel class C beta-lactamase inhibitors” (Bioorg Med Chem Lett, 2000).
≈ marks a conversion by molar mass, not a printed value. Calls of active or inactive are those of the source. The rule behind the calls is not given here.

Tests used:
[1] = molecular target: Beta-lactamase TEM (Escherichia coli) (UniProt P62593); test: Inhibitory activity against class A Beta-lactamase TEM isolated from Escherichia coli
[2] = molecular target: Beta-lactamase (Enterobacter cloacae, UniProt P05364); test: Inhibitory activity against class C Beta-lactamase isolated from Enterobacter cloacae
[3] = system: Pseudomonas aeruginosa; test: The ratio of compound to that of piperacillin was evaluated for antimicrobial activity against Pseudomonas aeruginosa OC 4290 by inhibiting enzyme AmpC(const) at 4 ug/mL; type: functional
[4] = system: Escherichia coli; test: The ratio of compound to that of piperacillin was evaluated for antimicrobial activity against Escherichia coli OC 4075 by inhibiting enzyme TEM-1 at 1 ug/mL; type: functional
[5] = system: Enterobacter cloacae; test: The ratio of compound to that of piperacillin was evaluated for antimicrobial activity against Enterobacter cloacae OC 4080 by inhibiting enzyme P99 at 4 ug/mL; not applicable; type: functional, organism-based
[6] = system: Enterobacter cloacae; test: The compound was evaluated for antimicrobial activity against Enterobacter cloacae OC 4081 by inhibiting enzyme E2 (const); type: functional
[7] = system: Pseudomonas aeruginosa; test: The ratio of compound to that of piperacillin was evaluated for antimicrobial activity against Pseudomonas aeruginosa OC 4290 by inhibiting enzyme AmpC(const) at 1 ug/mL; type: functional
[8] = system: Pseudomonas aeruginosa; test: The ratio of compound to that of piperacillin was evaluated for antimicrobial activity against Pseudomonas aeruginosa OC 4270 by inhibiting enzyme AmpC(ind) at 4 ug/mL; type: functional
[9] = system: Pseudomonas aeruginosa; test: The ratio of compound to that of piperacillin was evaluated for antimicrobial activity against Pseudomonas aeruginosa OC 4270 by inhibiting enzyme AmpC(ind) at 1 ug/mL; type: functional
[10] = system: Serratia marcescens; test: The ratio of compound to that of piperacillin was evaluated for antimicrobial activity against Serratia marcescens OC 4294 by inhibiting enzyme AmpC(const) at 1 ug/mL; type: functional
[11] = system: Escherichia coli; test: The ratio of compound to that of piperacillin was evaluated for antimicrobial activity against Escherichia coli OC 4075 by inhibiting enzyme TEM-1 at 4 ug/mL; not applicable; type: functional, organism-based
[12] = system: Serratia marcescens; test: The compound was evaluated for antimicrobial activity against Serratia marcescens OC 4101 by inhibiting enzyme AmpC(ind); type: functional
[13] = system: Serratia marcescens; test: The ratio of compound to that of piperacillin was evaluated for antimicrobial activity against Serratia marcescens OC 4294 by inhibiting enzyme AmpC(const) at 4 ug/mL; type: functional
[14] = system: Enterobacter cloacae; test: The compound was evaluated for antimicrobial activity against Enterobacter cloacae OC 4080 by inhibiting enzyme P99; type: functional
[15] = system: Serratia marcescens; test: The ratio of compound to that of piperacillin was evaluated for antimicrobial activity against Serratia marcescens OC 4101 by inhibiting enzyme AmpC(ind) at 1 ug/mL; type: functional
[16] = system: Serratia marcescens; test: The compound was evaluated for antimicrobial activity against Serratia marcescens OC 4294 by inhibiting enzyme AmpC(const); type: functional
[17] = system: Escherichia coli; test: The compound was evaluated for antimicrobial activity against Escherichia coli OC 4075 by inhibiting enzyme TEM-1; type: functional
[18] = system: Pseudomonas aeruginosa; test: The compound was evaluated for antimicrobial activity against Pseudomonas aeruginosa OC 4270 by inhibiting enzyme AmpC(ind); type: functional
[19] = system: Serratia marcescens; test: The ratio of compound to that of piperacillin was evaluated for antimicrobial activity against Serratia marcescens OC 4101 by inhibiting enzyme AmpC(ind) at 4 ug/mL; type: functional
[20] = system: Enterobacter cloacae; test: The ratio of compound to that of piperacillin was evaluated for antimicrobial activity against Enterobacter cloacae OC 4080 by inhibiting enzyme P99 at 1 ug/mL; type: functional
[21] = system: Enterobacter cloacae; test: The compound was evaluated for antimicrobial activity against Enterobacter cloacae OC 4092 by inhibiting enzyme E2 (ind); type: functional
[22] = system: Pseudomonas aeruginosa; test: The compound was evaluated for antimicrobial activity against Pseudomonas aeruginosa OC 4290 by inhibiting enzyme AmpC(const); type: functional
[23] = system: Enterobacter cloacae; test: The ratio of compound to that of piperacillin was evaluated for antimicrobial activity against Enterobacter cloacae OC 4080 by inhibiting enzyme P99 at 4 ug/mL; type: functional
[24] = system: Escherichia coli; test: The ratio of compound to that of piperacillin was evaluated for antimicrobial activity against Escherichia coli OC 4075 by inhibiting enzyme TEM-1 at 4 ug/mL; type: functional
[25] = Enterobacter cloacae, read-out: MIC
[26] = Escherichia coli, read-out: MIC
[27] = Pseudomonas aeruginosa, read-out: MIC

Sequence of Beta-lactamase TEM (Escherichia coli) (P62593 whole entry, looked up): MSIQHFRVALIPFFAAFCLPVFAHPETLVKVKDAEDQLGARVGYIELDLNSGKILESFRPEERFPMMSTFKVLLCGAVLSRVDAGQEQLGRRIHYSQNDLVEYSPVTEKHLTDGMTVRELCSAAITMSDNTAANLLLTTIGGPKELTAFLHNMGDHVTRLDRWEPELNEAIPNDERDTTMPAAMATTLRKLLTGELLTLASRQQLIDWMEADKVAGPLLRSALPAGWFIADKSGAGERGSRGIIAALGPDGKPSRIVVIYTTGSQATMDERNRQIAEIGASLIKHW
Sequence of Beta-lactamase (P05364 whole entry): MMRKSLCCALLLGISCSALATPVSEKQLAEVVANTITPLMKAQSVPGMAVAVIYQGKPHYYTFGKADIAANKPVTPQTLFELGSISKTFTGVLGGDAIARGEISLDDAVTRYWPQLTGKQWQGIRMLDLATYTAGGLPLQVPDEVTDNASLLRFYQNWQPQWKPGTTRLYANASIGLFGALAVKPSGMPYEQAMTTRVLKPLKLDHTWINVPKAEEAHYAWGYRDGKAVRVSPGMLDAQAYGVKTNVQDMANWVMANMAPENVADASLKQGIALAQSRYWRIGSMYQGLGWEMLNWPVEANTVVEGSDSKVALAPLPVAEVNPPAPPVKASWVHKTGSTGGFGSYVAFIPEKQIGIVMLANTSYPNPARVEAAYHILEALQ

O=C1NC(=S)S/C1=C\c1cn(-c2ccccc2)nn1
IC50 [1]: > 700 µM
IC50 [2]: 83 µM

CCN1C(=O)/C(=C/c2ccccc2)SC1=S
IC50 [1]: 432 µM
IC50 [2]: 240 µM

O=C1NC(=S)SC1=CC=Cc1ccco1
IC50 [1]: 100 µM
IC50 [2]: 62 µM

O=C1NC(=S)S/C1=C\c1ccccc1C(=O)O
IC50 [1]: > 700 µM
IC50 [2]: > 700 µM

O=C1NC(=S)SC1=CC=Cc1ccc([N+](=O)[O-])o1
Ratio [3]: 8
Ratio [4]: 64
Ratio [5]: inactive
MIC [6]: 32 µg/mL (≈ 113 µM)
Ratio [7]: 16
Ratio [8]: 4
Ratio [9]: 4
IC50 [1]: 100 µM
Ratio [10]: 32
Ratio [11]: inactive
MIC [12]: 8 µg/mL (≈ 28.3 µM)
Ratio [13]: 8
MIC [14]: 2 µg/mL (≈ 7.08 µM)
MIC [14, 25]: 2 µg/mL (≈ 7.08 µM)
IC50 [2]: 0.45 µM
Ratio [15]: 2
MIC [16]: 8 µg/mL (≈ 28.3 µM)
MIC [17]: 2 µg/mL (≈ 7.08 µM)
MIC [17, 26]: 2 µg/mL (≈ 7.08 µM)
MIC [18]: 32 µg/mL (≈ 113 µM)
MIC [18, 27]: 32 µg/mL (≈ 113 µM)
Ratio [19]: 2
Ratio [20]: 64
MIC [21]: 32 µg/mL (≈ 113 µM)
MIC [22]: 32 µg/mL (≈ 113 µM)
MIC [22, 27]: 32 µg/mL (≈ 113 µM)

O=C1/C(=C/c2ccccc2)SC(=S)N1CNc1nn[nH]n1
IC50 [1]: > 700 µM
IC50 [2]: 435 µM

CN(C)c1ccc(C=CC=C2SC(=S)NC2=O)cc1
IC50 [1]: > 100 µM
IC50 [2]: 8 µM

O=C1NC(=S)S/C1=C\c1ccccc1[N+](=O)[O-]
IC50 [1]: > 700 µM
IC50 [2]: 290 µM

O=C1NC(=S)SC1=CC=Cc1ccc([N+](=O)[O-])cc1
IC50 [1]: 100 µM
IC50 [2]: 4.2 µM

O=C1NC(=S)SC1=CC=Cc1ccccc1
IC50 [1]: > 700 µM
IC50 [2]: 76 µM

O=C1NC(=S)S/C1=C\c1ccccc1O
IC50 [1]: > 700 µM
IC50 [2]: 335 µM

CC(=O)Nc1ccccc1/C=C1\SC(=S)NC1=O
IC50 [1]: 190 µM
IC50 [2]: > 700 µM

O=C1NC(=O)C(=CC=Cc2ccc([N+](=O)[O-])o2)S1
MIC [6]: 4 µg/mL (≈ 15 µM)
IC50 [1]: > 50 µM
MIC [14, 25]: 0.5 µg/mL (≈ 1.88 µM)
IC50 [2]: > 50 µM
MIC [17, 26]: 1 µg/mL (≈ 3.76 µM)
MIC [18, 27]: 32 µg/mL (≈ 120 µM)
MIC [21]: 4 µg/mL (≈ 15 µM)
MIC [22, 27]: 32 µg/mL (≈ 120 µM)

O=C1/C(=C/c2ccccc2)SC(=S)N1CNc1nncs1
IC50 [1]: 138 µM
IC50 [2]: 246 µM

O=C(O)CN1C(=O)/C(=C/c2ccccc2)SC1=S
IC50 [1]: > 700 µM
IC50 [2]: > 700 µM

O=C1NC(=S)S/C1=C\c1ccc([N+](=O)[O-])cc1
IC50 [1]: > 700 µM
IC50 [2]: 43 µM

O=C1NC(=S)S/C1=C\c1cn(-c2ccccc2)cn1
IC50 [1]: > 700 µM
IC50 [2]: > 700 µM

CCN1CCN(C(=O)N[C@@H](C(=O)N[C@@H]2C(=O)N3[C@@H]2SC(C)(C)[C@@H]3C(=O)O)c2ccccc2)C(=O)C1=O [PIPERACILLIN]
MIC [12]: 8 µg/mL (≈ 15.5 µM)
MIC [14, 25]: > 64 µg/mL
MIC [16]: > 64 µg/mL
MIC [17]: > 64 µg/mL
MIC [18, 27]: 8 µg/mL (≈ 15.5 µM)
MIC [22, 27]: > 64 µg/mL

O=C1NC(=S)S/C1=C\CCc1ccccc1
IC50 [1]: 32 µM
IC50 [2]: 9.7 µM

N#Cc1ccc(/C=C2\SC(=S)NC2=O)cc1
IC50 [1]: > 700 µM
IC50 [2]: 500 µM

O=C1NC(=S)S/C1=C1/C(=O)Nc2ccccc21
IC50 [1]: 8.7 µM
IC50 [2]: 2.6 µM

C[C@]1(Cn2ccnn2)[C@H](C(=O)O)N2C(=O)C[C@H]2S1(=O)=O [TAZOBACTAM]
MIC [23]: 64 µg/mL
MIC [24]: 8 µg/mL
MIC [3]: 32 µg/mL
MIC [8]: 8 µg/mL
MIC [13]: 32 µg/mL
MIC [19]: 4 µg/mL
